Results on seven compounds are retold here after the Kinase Knowledgebase extract (Sharma et al. 2016).

The target in assay [1] is EGFR (human) (UniProt P00533). Conditions: a2780ddp.
Assay [2] concerns the target EGFR (human) (UniProt P00533). Conditions: a431.
In assay [3] the target is EGFR (human) (UniProt P00533). The following applies: a2780.
In assay [4] the target is EGFR (human) (UniProt P00533). The following applies: mda435.
For a further assay, the target named is EGFR (UniProt P00533).
Sequence of EGFR (P00533 whole entry, looked up): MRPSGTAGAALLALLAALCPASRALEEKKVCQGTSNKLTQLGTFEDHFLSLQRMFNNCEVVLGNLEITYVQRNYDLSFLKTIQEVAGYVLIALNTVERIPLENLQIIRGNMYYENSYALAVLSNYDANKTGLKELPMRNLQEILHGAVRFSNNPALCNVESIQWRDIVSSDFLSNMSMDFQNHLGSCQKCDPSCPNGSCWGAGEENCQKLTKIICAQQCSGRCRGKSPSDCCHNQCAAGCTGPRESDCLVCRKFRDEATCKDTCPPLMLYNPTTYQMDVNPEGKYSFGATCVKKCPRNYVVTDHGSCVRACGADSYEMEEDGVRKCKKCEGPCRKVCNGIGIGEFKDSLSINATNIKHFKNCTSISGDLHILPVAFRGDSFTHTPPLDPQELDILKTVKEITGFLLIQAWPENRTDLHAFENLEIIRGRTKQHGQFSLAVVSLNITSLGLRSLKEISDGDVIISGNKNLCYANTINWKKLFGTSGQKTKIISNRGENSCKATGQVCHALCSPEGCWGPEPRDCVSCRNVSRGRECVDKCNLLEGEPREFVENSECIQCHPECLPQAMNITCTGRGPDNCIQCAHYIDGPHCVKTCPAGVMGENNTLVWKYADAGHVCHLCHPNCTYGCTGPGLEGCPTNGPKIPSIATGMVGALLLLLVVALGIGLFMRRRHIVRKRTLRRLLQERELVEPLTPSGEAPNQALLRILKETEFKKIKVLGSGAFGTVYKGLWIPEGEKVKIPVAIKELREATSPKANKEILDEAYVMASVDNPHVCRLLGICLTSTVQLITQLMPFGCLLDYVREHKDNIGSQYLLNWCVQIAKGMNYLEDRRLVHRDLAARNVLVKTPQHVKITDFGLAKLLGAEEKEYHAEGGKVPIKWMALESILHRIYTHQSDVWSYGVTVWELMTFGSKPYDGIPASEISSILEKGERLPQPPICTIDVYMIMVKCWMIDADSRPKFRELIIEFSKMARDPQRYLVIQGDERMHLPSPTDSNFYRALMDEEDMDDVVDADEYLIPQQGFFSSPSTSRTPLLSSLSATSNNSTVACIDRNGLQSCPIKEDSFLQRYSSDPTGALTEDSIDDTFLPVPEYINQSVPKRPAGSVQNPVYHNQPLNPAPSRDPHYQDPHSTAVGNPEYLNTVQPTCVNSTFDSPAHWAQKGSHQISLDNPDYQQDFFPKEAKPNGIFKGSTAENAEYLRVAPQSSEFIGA
Assay [5] addresses EGFR (human) (UniProt P00533). Conditions: 3t3.
Assay [6] deals with EGFR (human) (UniProt P00533). The following applies: sk-br-3.

SMILES strings stand for the structures. Values after ≈ are worked out from the molar mass of the structure shown.

Sequence of EGFR (human) (P00533 whole entry, looked up): as above

Usually IC50 stands for the concentration at which inhibition is half-maximal. High values mean weaker potency, low ones greater potency. In the case of `CNc1cc2c(Nc3cccc(Br)c3)c(C#N)cnc2cn1`, the IC50 lay within 0.43 to 2.25 µg/mL (≈ 1.21 to 6.34 µM) against EGFR (human) [1], 0.209 to 0.31 µg/mL (≈ 0.59 to 0.875 µM) against EGFR (human) [2], 0.74 to 2.36 µg/mL (≈ 2.09 to 6.67 µM) against EGFR (human) [3] and 0.98 to 3.94 µg/mL (≈ 2.77 to 11.1 µM) against EGFR (human) [4].

`CCOc1ccc2ncc(C#N)c(Nc3cccc(Br)c3)c2n1` displayed an IC50 against EGFR of over 10000 nM.

In the case of `CN(C)C/C=C/C(=O)Nc1cnc2ncc(C#N)c(Nc3cccc(Br)c3)c2c1`, the IC50 on EGFR was 800 nM.

Consider `CC#CC(=O)Nc1cc2c(Nc3cccc(Br)c3)c(C#N)cnc2cn1`, for which the IC50 against EGFR (human) [3] came to 0.06 µg/mL (≈ 0.148 µM).

As for `CN(C)C/C=C/C(=O)Nc1cc2c(Nc3cccc(Br)c3)c(C#N)cnc2cn1`, on EGFR (human) [5], the IC50 was 0.272 to 0.373 µg/mL (≈ 0.602 to 0.826 µM).

Regarding `COc1ccc(CNc2cc3c(Nc4cccc(Br)c4)c(C#N)cnc3cn2)cc1`, the half-inhibitory concentration (IC50) on EGFR was over 100 nM.

Regarding `N#Cc1cnc2cnc(NCCN3CCOCC3)cc2c1Nc1cccc(Br)c1`, the IC50 at EGFR (human) [1] is 0.8 µg/mL (≈ 1.76 µM); on EGFR (human) [6], 0.4 µg/mL (≈ 0.882 µM).
